# Experimental data taken from paper PMC11164132 (British journal of pharmacology, 2021).
# Target: hTRPV1 (Homo sapiens, UniProt Q8NER1)
# Assay type: cell-based
# hTRPV1, sequence (Q8NER1 whole entry): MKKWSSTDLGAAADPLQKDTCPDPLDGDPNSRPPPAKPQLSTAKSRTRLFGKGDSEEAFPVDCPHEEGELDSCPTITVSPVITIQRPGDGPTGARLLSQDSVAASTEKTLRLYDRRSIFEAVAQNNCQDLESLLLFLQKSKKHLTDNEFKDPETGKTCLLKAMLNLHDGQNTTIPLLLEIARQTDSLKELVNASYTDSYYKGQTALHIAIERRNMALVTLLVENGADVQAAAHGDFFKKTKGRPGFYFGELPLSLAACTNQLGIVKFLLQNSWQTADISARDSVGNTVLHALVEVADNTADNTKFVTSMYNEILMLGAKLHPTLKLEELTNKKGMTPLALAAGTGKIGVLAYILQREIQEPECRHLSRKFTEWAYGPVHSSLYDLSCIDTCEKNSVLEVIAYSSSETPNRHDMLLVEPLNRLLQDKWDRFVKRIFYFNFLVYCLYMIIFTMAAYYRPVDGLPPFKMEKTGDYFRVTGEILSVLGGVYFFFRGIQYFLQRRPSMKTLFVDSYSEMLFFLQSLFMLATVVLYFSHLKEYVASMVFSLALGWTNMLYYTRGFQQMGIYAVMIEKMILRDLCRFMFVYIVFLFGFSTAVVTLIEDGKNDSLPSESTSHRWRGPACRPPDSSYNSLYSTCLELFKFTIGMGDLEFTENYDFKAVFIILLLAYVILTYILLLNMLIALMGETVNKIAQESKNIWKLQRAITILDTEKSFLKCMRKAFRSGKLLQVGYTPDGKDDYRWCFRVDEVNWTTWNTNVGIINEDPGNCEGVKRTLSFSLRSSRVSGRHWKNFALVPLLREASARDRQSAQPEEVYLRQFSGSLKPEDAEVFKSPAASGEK
smiles,measurement,value
"CCCCCCCCCCCC(=O)NCCO [compound 3, lauric acid monoethanolamide]",EC50,3.2 µM
